Test results from ChEMBL document CHEMBL1201862, “PubChem BioAssay data set” (2004).
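In this assay, cells in 96-well plates receive the compound at five concentrations for 48 hours. Endpoints are linearly interpolated between the surrounding concentrations. GI50 marks 50% less growth.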 The source made the active and inactive calls. No stated cut-off is given here; in the data, active = GI50 up to about 1.1 µM and inactive = higher.

Experiments:
Assay in all cases: DTP human tumour cell line panel, 48 h
EKVX = tested on: EKVX
A498 = tested on: A498
Malme-3M = tested on: Malme-3M
HOP-62 = tested on: HOP-62
TK-10 = tested on: TK-10
NCI/ADR-RES = tested on: NCI/ADR-RES
SK-MEL-5 = tested on: SK-MEL-5
UO-31 = tested on: UO-31
MDA-MB-435 = tested on: MDA-MB-435
786-0 = tested on: 786-0
SF-268 = tested on: SF-268
T47D = tested on: T47D
KM12 = tested on: KM12
RPMI-8226 = tested on: RPMI-8226
DU-145 = tested on: DU-145
NCI-H522 = tested on: NCI-H522
HCT-116 = tested on: HCT-116
BT-549 = tested on: BT-549
UACC-62 = tested on: UACC-62

Compound | GI50 (EKVX) | GI50 (A498) | GI50 (Malme-3M) | GI50 (HOP-62) | GI50 (TK-10) | GI50 (NCI/ADR-RES) | GI50 (SK-MEL-5) | GI50 (UO-31) | GI50 (MDA-MB-435) | GI50 (786-0) | GI50 (SF-268) | GI50 (T47D) | GI50 (KM12) | GI50 (RPMI-8226) | GI50 (DU-145) | GI50 (NCI-H522) | GI50 (HCT-116) | GI50 (BT-549) | GI50 (UACC-62)
O=C(O)CCSc1ncnc2[nH]cnc12 | > 100 µM (inactive) | > 100 µM (inactive) | > 100 µM (inactive) | > 100 µM (inactive) | > 100 µM (inactive) | > 100 µM (inactive) | > 100 µM (inactive) | > 100 µM (inactive) | > 100 µM (inactive) | > 100 µM (inactive) | > 100 µM (inactive) | > 100 µM (inactive) | > 100 µM (inactive) | > 100 µM (inactive) | > 100 µM (inactive) | > 100 µM (inactive) | > 100 µM (inactive) | > 100 µM (inactive) | > 100 µM (inactive)
Cc1ccccc1/N=N/c1ccc(/N=N/c2c(O)ccc3ccccc23)c(C)c1 [SCARLET RED] | > 100 µM (inactive) | > 100 µM (inactive) | > 100 µM (inactive) | 38 µM (inactive) | > 100 µM (inactive) | > 100 µM (inactive) | > 100 µM (inactive) | > 100 µM (inactive) | > 100 µM (inactive) | > 100 µM (inactive) | 70.3 µM (inactive) | > 100 µM (inactive) | > 100 µM (inactive) | > 100 µM (inactive) | > 100 µM (inactive) | > 100 µM (inactive) | > 100 µM (inactive) | > 100 µM (inactive) | > 100 µM (inactive)
CSc1cc(-c2ccccn2)nc(-c2ccccn2)c1 | 0.0906 µM (active) | 0.769 µM (active) | 0.102 µM (active) | 0.0329 µM (active) | 0.0401 µM (active) | 0.0944 µM (active) | 0.126 µM (active) | 0.0607 µM (active) | 0.327 µM (active) | 0.0546 µM (active) | 0.0559 µM (active) | 0.346 µM (active) | 0.124 µM (active) | 0.383 µM (active) | 0.097 µM (active) | 0.385 µM (active) | 0.0682 µM (active) | 0.0536 µM (active) | 0.176 µM (active)
Cc1cccc2c(=O)c3cccc([C@H](C)C(=O)O)c3oc12 | > 100 µM (inactive) | > 100 µM (inactive) | > 100 µM (inactive) | > 100 µM (inactive) | > 100 µM (inactive) | > 100 µM (inactive) | > 100 µM (inactive) | > 100 µM (inactive) | > 100 µM (inactive) | > 100 µM (inactive) | > 100 µM (inactive) | > 100 µM (inactive) | > 100 µM (inactive) | > 100 µM (inactive) | > 100 µM (inactive) | > 100 µM (inactive) | > 100 µM (inactive) | > 100 µM (inactive) | > 100 µM (inactive)
CC(C)(C)[Si](C)(C)OCC1C=CC(n2cnc3c(N)ncnc32)O1 (configuration not stated) | > 59.8 µM (inactive) | > 79.3 µM (inactive) | 61.1 µM (inactive) | 69.8 µM (inactive) | > 100 µM (inactive) | 34.2 µM (inactive) | 15.4 µM (inactive) | 52 µM (inactive) | 22.3 µM (inactive) | 61.2 µM (inactive) | 83.2 µM (inactive) | 20.6 µM (inactive) | 59.2 µM (inactive) | 16.7 µM (inactive) | 64.3 µM (inactive) | 33.2 µM (inactive) | 20.1 µM (inactive) | 24.7 µM (inactive) | 44.5 µM (inactive)
CCOC(=O)COc1ccc(/C=C/C(=O)c2ccc(OC)cc2)cc1 | 27.8 µM (inactive) | 29.6 µM (inactive) | 28.2 µM (inactive) | 20.8 µM (inactive) | 42 µM (inactive) | 44.7 µM (inactive) | > 10 µM (inactive) | 19.3 µM (inactive) | 16.8 µM (inactive) | 20.8 µM (inactive) | 22.3 µM (inactive) | 39.7 µM (inactive) | 28.4 µM (inactive) | 39.3 µM (inactive) | 29.9 µM (inactive) | 22.3 µM (inactive) | 21.3 µM (inactive) | 28.5 µM (inactive) | 22.5 µM (inactive)
CCOC(=O)CCNC(=O)c1cc(C)cc2c1Oc1c(cc(C)cc1C(=O)NCCC(=O)OCC)S2 | > 100 µM (inactive) | 27.2 µM (inactive) | > 100 µM (inactive) | 56.4 µM (inactive) | 42.3 µM (inactive) | 44.6 µM (inactive) | 35.9 µM (inactive) | > 100 µM (inactive) | > 100 µM (inactive) | 50 µM (inactive) | 49.2 µM (inactive) | 28.8 µM (inactive) | > 100 µM (inactive) | > 100 µM (inactive) | > 100 µM (inactive) | 40.6 µM (inactive) | 24.9 µM (inactive) | 68.7 µM (inactive) | 38.5 µM (inactive)
N#Cc1c(-c2nc3ccccc3s2)c(=O)oc2cc(O)ccc12 | 39.6 µM (inactive) | 23 µM (inactive) | 18.3 µM (inactive) | 16.7 µM (inactive) | > 100 µM (inactive) | 32.4 µM (inactive) | 10.2 µM (inactive) | 22 µM (inactive) | 27.8 µM (inactive) | 26.4 µM (inactive) | 48.6 µM (inactive) | 17.7 µM (inactive) | 22.3 µM (inactive) | 13.1 µM (inactive) | 22.6 µM (inactive) | 13.2 µM (inactive) | 31.5 µM (inactive) | 16.7 µM (inactive) | > 100 µM (inactive)
